Measurements published in publication PMC3665789 (PLoS ONE, 2013).

Legend:
[1] = system: HIV-1 IIIB; assay: Time-of-drug-addition study, HIV; format: cell-based; conditions: MT-4 cells, 48 µM LabyA1
Procedure: The time-of-drug-addition (TOA) experiments were performed as described. In brief, 1×10^6 MT-4 cells/ml were infected with HIV-1 X4 IIIB at a multiplicity of infection (MOI) of 0.5. The compounds were added at different time points in a range from 0 to 26 h post-infection. After 31 h, HIV-1 replication was detected by p24 HIV-1 Ag ELISA as described above. The reference compounds were added at 100 times their EC50-values, as obtained in the MT-4 cell antiviral assay.

[2] = system: HIV-1 R5 BaL in PBMCs; assay: Susceptibility of pre-treated PBMCs for HIV-1 infection; conditions: washed, HIV-1 BaL, day 7
Procedure: The next day, cells were collected, extensively washed in culture medium, resuspended (5×10^5 cells/450 µl) and seeded in a 48-well plate. Immediately afterwards, 50 µl of HIV-1 R5 strain BaL (500 pg/well) was added and cells were cultures for 7 days. Supernatant was collected 7 days post virus infection and viral replication was determined by p24 HIV-1 Ag ELISA.

[3] = system: HIV-1 ETH2220 (clinical isolate; R5); conditions: PBMCs; ETH2220, group M subtype C; p24 Ag ELISA
[4] = system: HSV-2 TK^- BA19026589 (clinical isolate); conditions: HEL cells, CPE
[5] = system: HSV-1 wild-type KOS (reference strain); conditions: HEL cells; HSV-1 KOS; reduction of virus-induced CPE by 50%
[6] = system: HIV-1 NPO3 (clinical isolate; X4); conditions: PBMCs; NPO3, group M subtype E; p24 Ag ELISA
[7] = system: Lactobacillus strains; assay: Vaginal Lactobacillus growth assay; format: cell-based; conditions: dose up to 120 µM; 24 h, OD600
Procedure: Lactobacillus strains grown overnight to stationary phase (OD600 nm ∼1.8–2.0) were used as inocula for the assay. The assay was performed in 96-well microtiter plates. Sterile wells were filled with 200 µl MRS (de Man – Rogosa – Sharpe) medium (BD Biosciences). About 0.5×10^7 colony forming units or CFUs (1/100 of an overnight culture) were added and then 5-fold dilution series of different concentrations of the used compounds were administered. The plates were incubated without shaking for 24 h at 37°C. The OD600 nm was measured after 24 h and as a negative control, each strain was grown in medium without compound (Petrova et al., in preparation).

[8] = Cytotoxicity assay (MTS/PES); format: cell-based, human; conditions: HEL cells, 3 days
Procedure: Cytotoxicity in PBMCs (3 days), MT-4 (5 days), HUT-78 (1 day), C8166-(5 days), HEL (3 days) and Daudi cells (3 days) was measured using the MTS/PES method. The duration of the assays is given between brackets.

[9] = system: HSV-1 TK^- RV-179 (clinical isolate); conditions: HEL cells, CPE
[10] = system: HSV; conditions: read-out: anti-HSV activity EC50 range; range over HSV-1 and HSV-2 strains; CPE in HEL cells
[11] = target: T1, X4 HIV-1 gp120 IIIB (Human immunodeficiency virus type 1 group M subtype B, UniProt P04578); assay: Surface plasmon resonance; format: binding
T1 construct: Recombinant gp120 proteins from X4 HIV-1 IIIB strain; purchased ImmunoDiagnostics Inc., Woburn, MA
Procedure: (§1) Recombinant gp120 proteins from X4 HIV-1 IIIB strain (ImmunoDiagnostics Inc., Woburn, MA) and from R5 HIV-1 strains ADA and YU2 (ImmunoDiagnostics Inc.) were covalently immobilized on a CM5 sensor chip in 10 mM sodium acetate, pH 4.0, using standard amine coupling chemistry. […] A reference flow cell was used as a control for non-specific binding and refractive index changes. […] Samples (in duplicate) were injected for 2 minutes at a flow rate of 45 µl/min and the dissociation was followed for 4 minutes. Several buffer blanks were used for double referencing. The CM5 sensor chip surface was regenerated with a single injection of 50 mM NaOH. A DMSO concentration series was included to eliminate the contribution of DMSO to the measured response. […] The experimental data were fit using the 1∶1 binding model Biacore T200 Evaluation software 1.0 to determine the binding kinetics.

[12] = target: T2, R5 HIV-1 gp120 YU2 (Human immunodeficiency virus type 1 group M subtype B, UniProt P35961); assay: Surface plasmon resonance; format: binding
T2 construct: Recombinant gp120 proteins from X4 HIV-1 IIIB strain (ImmunoDiagnostics Inc., Woburn, MA) and from R5 HIV-1 strains ADA and YU2; purchased ImmunoDiagnostics Inc
Procedure: as §1

[13] = system: HIV-1 NL4.3^T20res. (X4); conditions: read-out: EC50 (µM ± SEM); MT-4 cells; NL4.3 resistant to enfuvirtide (T20); MTS/PES
[14] = system: drug-resistant HIV strains; conditions: read-out: Median EC50; median over 6 drug-resistant HIV-1 strains in MT-4
[15] = system: HSV-2 wild-type RV-24 (clinical isolate); conditions: HEL cells; HSV-2 RV-24; CPE
[16] = system: HIV-1 IIIB^FGMres. (X4); conditions: read-out: EC50 (µM ± SEM); MT-4 cells; IIIB resistant to feglymycin (FGM); MTS/PES
[17] = system: PBMCs; assay: Activation markers CD25 and CD69 on PBMCs (flow cytometry); format: cell-based; conditions: 3 days, LabyA1 9.6 µM, PHA 0.016 µM
Procedure: The effects of 9.6 µM LabyA1 and 0.016 µM PHA on the expression levels of the cellular activation markers CD25 and CD69 on PBMCs was measured after 3 days of incubation at 37°C. After washing with PBS/FCS2%, cells were incubated with anti-CD4 conjugated with PerCP (BD Biosciences) and co-stained with the PE-conjugated mAbs anti-CD25 or anti-CD69 (both BD Biosciences) for 30 min at 4°C. For aspecific background staining, cells were incubated with SimulTest™ Control (IgGγ1-FITC/IgGγ2a-PE). After washing, and fixation with 1% formaldehyde solution, samples were analyzed using the FACSCalibur and CellQuest software (BD Biosciences).

[18] = system: HIV-1 US2 (clinical isolate; R5/X4); conditions: PBMCs; US2, group M subtype B; p24 Ag ELISA

C/C=C1\NC(=O)[C@H](Cc2ccccc2)NC(=O)[C@@H]2CCCN2C(=O)[C@H](C(C)C)NC(=O)[C@H](Cc2c[nH]c3ccccc23)NC(=O)[C@]23CSC[C@H](NC1=O)C(=O)N[C@H](C(=O)O)CSSC[C@H](NC(=O)[C@@H]1CSC[C@]4(C[C@H](N)C(=O)N[C@@H](CC(N)=O)C(=O)N[C@@H](C)C(=O)N4)C(=O)N[C@@H](C(C)C)C(=O)N[C@@H](Cc4c[nH]c5ccccc45)C(=O)N[C@@H](CCC(=O)O)C(=O)N1)C(=O)N[C@@H](C2)C(=O)N[C@@H]([C@@H](C)O)C(=O)NCC(=O)N3 [LabyA1, labyrinthopeptin A1]
time-of-drug-addition profile [1]: prevented HIV infection at an early time point somewhat comparable with AMD3100 | p24 HIV-1 Ag production after pre-treatment ([2]; PBMCs pre-treated 24 h with 1.9 µM): 12.26 ± 4.61 ng/mL | p24 HIV-1 Ag production after pre-treatment ([2]; PBMCs pre-treated 24 h with 9.6 µM, no compound 12.69±4.83): 15.37 ± 3.75 ng/mL | EC50 [3]: 780 ± 60 nM | EC50 [4]: 290 ± 100 nM | EC50 [5]: 560 ± 50 nM | EC50 [6]: 1600 ± 300 nM | growth inhibitory effects on Lactobacillus strains [7]: no growth inhibitory effects were observed | CC50 [8]: > 48000 nM | EC50 [9]: 1900 ± 300 nM | EC50 [10]: 290 to 2800 nM | Kd [11]: 7800 ± 2100 nM | Kd [12]: 9800 ± 1600 nM | EC50 [13]: 2.3 ± 0.3 µM | EC50 [14]: 2100 nM | EC50 [15]: 410 ± 280 nM | EC50 [16]: 1.9 ± 0.1 µM | percentage of CD4+CD69+ cells ([17]; untreated 1.4±0.8%): no significant effects | percentage of CD4+CD25+ cells ([17]; untreated 10.7±3.2%): no significant effects | EC50 [18]: 700 ± 190 nM
